Laboratory results: ChEMBL document CHEMBL1212738, “Phenotypic and genotypic characterization of Enterobacteriaceae with decreased susceptibility to carbapenems: results from large hospital-based surveillance studies in China” (2010)
Converted amounts (≈) assume the structure as drawn.

What was measured:
[1] = system: Klebsiella pneumoniae; assay: Antimicrobial activity against carbapenem-resistant Klebsiella pneumoniae ZJ69 deficient in SHV-28, ompK35/36 by CLSI method; type: functional
[2] = system: Klebsiella pneumoniae; assay: Antimicrobial activity against carbapenem-resistant Klebsiella pneumoniae ZJ70 deficient in KPC-2, SHV-11, CTX-M-14, ompK35/36 by CLSI method; type: functional
[3] = system: Enterobacter cloacae; assay: Antimicrobial activity against carbapenem-resistant Enterobacter cloacae NJ89 deficient in CTX-M-14, ompC/F by CLSI method; type: functional
[4] = system: Klebsiella pneumoniae; assay: Antimicrobial activity against carbapenem-resistant Klebsiella pneumoniae SZ61 deficient in TEM-1, SHV-1a, CMY-2, ompK35/36 by CLSI method; type: functional
[5] = system: Klebsiella pneumoniae; assay: Antimicrobial activity against Klebsiella pneumoniae WH77 expressing IMP-4, TEM-1, SHV-14, CTX-M-3, qnrS1 by CLSI method; type: functional
[6] = system: Escherichia coli; assay: Antimicrobial activity against Escherichia coli ZJ87T expressing KPC-2 by CLSI method; type: functional
[7] = system: Klebsiella pneumoniae; assay: Antimicrobial activity against carbapenem-resistant Klebsiella pneumoniae PU8 deficient in SHV-11, DHA-1, aac(6')-Ib-cr, ompK35/36 by CLSI method; type: functional
[8] = system: Escherichia coli; assay: Antimicrobial activity against Escherichia coli C600 transconjugant WH77T expressing IMP-4, TEM-1, CTX-M-3, qnrS1 by CLSI method
[9] = system: Enterobacter cloacae; assay: Antimicrobial activity against carbapenem-resistant Enterobacter cloacae SZ92 deficient in IMP-4, TEM-1, CTX-M-14, DHA-1, qnrB10/B4-like, aac(6')-Ib, ompC by CLSI method; type: functional
[10] = system: Escherichia coli; assay: Antimicrobial activity against carbapenem-resistant Escherichia coli ZJ86 expressing KPC-2, TEM-1 with ompC loss by CLSI method
[11] = system: Klebsiella pneumoniae; assay: Antimicrobial activity against carbapenem-resistant Klebsiella pneumoniae FZ49 deficient in IMP-8, TEM-1, SHV-11, CTX-M-14, qnrB2, aac(6')-Ib, ompK35/36 by CLSI method; type: functional
[12] = system: Citrobacter freundii; assay: Antimicrobial activity against Citrobacter freundii SZ63 expressing IMP-4, qnrS1by CLSI method; type: functional
[13] = system: Escherichia coli; assay: Antimicrobial activity against Escherichia coli C600 transconjugant XJ81T expressing TEM-1, SHV-12, aac(6')-Ib by CLSI method
[14] = system: Klebsiella pneumoniae; assay: Antimicrobial activity against carbapenem-resistant Klebsiella pneumoniae GZ84 deficient in SHV-11, aac(6')-Ib-cr, ompK35 by CLSI method; type: functional
[15] = system: Klebsiella pneumoniae; assay: Antimicrobial activity against Klebsiella pneumoniae ZJ68T expressing CTX-M-15 by CLSI method; type: functional
[16] = system: Escherichia coli; assay: Antimicrobial activity against Escherichia coli C600 transconjugant SZ62T expressing IMP-4, qnrS1by CLSI method
[17] = system: Klebsiella pneumoniae; assay: Antimicrobial activity against carbapenem-resistant Klebsiella pneumoniae PU3 deficient in DHA-1, aac(6')-Ib-cr, ompK35/36 by CLSI method; type: functional
[18] = system: Escherichia coli; assay: Antimicrobial activity against Escherichia coli PU102T expressing TEM-1, CTX-M-14, CMY-2 by CLSI method; type: functional
[19] = system: Klebsiella pneumoniae; assay: Antimicrobial activity against Klebsiella pneumoniae ZJ71T expressing KPC-2 by CLSI method; type: functional
[20] = system: Klebsiella pneumoniae; assay: Antimicrobial activity against Klebsiella pneumoniae GZ64T expressing IMP-4 by CLSI method; type: functional
[21] = system: Escherichia coli; assay: Antimicrobial activity against Escherichia coli ZJ86T expressing KPC-2 by CLSI method; type: functional
[22] = system: Klebsiella pneumoniae; assay: Antimicrobial activity against carbapenem-resistant Klebsiella pneumoniae ZJ71 deficient in KPC-2, TEM-1, SHV-11, CTX-M-14, ompK35 by CLSI method; type: functional
[23] = system: Enterobacter cloacae; assay: Antimicrobial activity against carbapenem-resistant Enterobacter cloacae NJ88 deficient in CTX-M-14, ompC/F by CLSI method; type: functional
[24] = system: Escherichia coli; assay: Antimicrobial activity against carbapenem-resistant Escherichia coli PU43 deficient in TEM-1, CTX-M-14, aac(6')-Ib, ompC/F by CLSI method; type: functional
[25] = system: Klebsiella pneumoniae; assay: Antimicrobial activity against Klebsiella pneumoniae ZJ18T expressing KPC-2, DHA-1 by CLSI method; type: functional
[26] = system: Enterobacter cloacae; assay: Antimicrobial activity against carbapenem-resistant Enterobacter cloacae NJ91 deficient in CTX-M-14, ompC/F by CLSI method; type: functional
[27] = system: Klebsiella pneumoniae; assay: Antimicrobial activity against Klebsiella pneumoniae PU104T expressing TEM-1, CTX-M-15 by CLSI method; type: functional
[28] = system: Klebsiella pneumoniae; assay: Antimicrobial activity against carbapenem-resistant Klebsiella pneumoniae GZ66 deficient in SHV-11, DHA-1, ompK35/36 by CLSI method; type: functional
[29] = system: Klebsiella aerogenes; assay: Antimicrobial activity against Enterobacter aerogenes PU41T expressing CTX-M-14, DHA-1, qnrS1 by CLSI method; type: functional
[30] = system: Enterobacter cloacae; assay: Antimicrobial activity against carbapenem-resistant Enterobacter cloacae WH103 deficient in IMP-4, TEM-1, CTX-M-3, qnrS1, ompC by CLSI method; type: functional
[31] = system: Escherichia coli; assay: Antimicrobial activity against carbapenem-resistant Escherichia coli PU101 deficient in TEM-1, CTX-M-14, CMY-2, ompC by CLSI method; type: functional
[32] = system: Escherichia coli; assay: Antimicrobial activity against carbapenem-resistant Escherichia coli HX74 deficient in TEM-1, CTX-M-14, CTX-M-3, aac(6')-Ibcr, ompC/F by CLSI method; type: functional
[33] = system: Klebsiella pneumoniae; assay: Antimicrobial activity against carbapenem-resistant Klebsiella pneumoniae XJ81 deficient in TEM-1, SHV-12, DHA-1, aac(6')-Ib, ompK35/36 by CLSI method; type: functional
[34] = system: Klebsiella aerogenes; assay: Antimicrobial activity against carbapenem-resistant Enterobacter aerogenes PU41 deficient in CTX-M-14, DHA-1, qnrS1, ompC DEc, ompF by CLSI method; type: functional
[35] = system: Klebsiella pneumoniae; assay: Antimicrobial activity against carbapenem-resistant Klebsiella pneumoniae FZ47 deficient in IMP-8, TEM-1, SHV-11, CTX-M-14, qnrB2, aac(6')-Ib, ompK35/36 by CLSI method; type: functional
[36] = system: Klebsiella pneumoniae; assay: Antimicrobial activity against Klebsiella pneumoniae FZ49T expressing IMP-8, TEM-1, CTX-M-14, qnrB2, aac(6')-Ib by CLSI method; type: functional
[37] = system: Klebsiella pneumoniae; assay: Antimicrobial activity against Klebsiella pneumoniae CY1T expressing SHV-11, DHA-1 by CLSI method; type: functional
[38] = system: Klebsiella pneumoniae; assay: Antimicrobial activity against Klebsiella pneumoniae ZJ99 expressing KPC-2, CTX-M-3, qnrS1, ompK35 DE by CLSI method; type: functional
[39] = system: Citrobacter freundii; assay: Antimicrobial activity against Citrobacter freundii SZ62 expressing IMP-4, TEM-1, CMY-2, qnrS1, aac(6')-Ib-cr by CLSI method; type: functional
[40] = system: Klebsiella pneumoniae; assay: Antimicrobial activity against carbapenem-resistant Klebsiella pneumoniae CY1 deficient in SHV-11, DHA-1, ompK35/36 by CLSI method; type: functional
[41] = system: Klebsiella pneumoniae; assay: Antimicrobial activity against Klebsiella pneumoniae ZJ99T expressing KPC-2, CTX-M-3, qnrS1 by CLSI method; type: functional

NCC[C@H](O)C(=O)N[C@@H]1C[C@H](N)[C@@H](O[C@H]2O[C@H](CN)[C@@H](O)[C@H](O)[C@H]2O)[C@H](O)[C@H]1O[C@H]1O[C@H](CO)[C@@H](O)[C@H](N)[C@H]1O [AMIKACIN]
MIC [1]: > 256 µg/mL | MIC [2]: > 256 µg/mL | MIC [3]: > 256 µg/mL | MIC [4]: > 256 µg/mL | MIC [5]: 1 µg/mL (≈ 1.71 µM) | MIC [6]: 1 µg/mL (≈ 1.71 µM) | MIC [7]: 8 µg/mL (≈ 13.7 µM) | MIC [8]: 1 µg/mL (≈ 1.71 µM) | MIC [9]: 1 µg/mL (≈ 1.71 µM) | MIC [10]: 1 µg/mL (≈ 1.71 µM) | MIC [11]: > 256 µg/mL | MIC [12]: > 256 µg/mL | MIC [13]: 16 µg/mL (≈ 27.3 µM) | MIC [14]: 16 µg/mL (≈ 27.3 µM) | MIC [15]: > 256 µg/mL | MIC [16]: 1 µg/mL (≈ 1.71 µM) | MIC [17]: 16 µg/mL (≈ 27.3 µM) | MIC [18]: 1 µg/mL (≈ 1.71 µM) | MIC [19]: 1 µg/mL (≈ 1.71 µM) | MIC [20]: 1 µg/mL (≈ 1.71 µM) | MIC [21]: 32 µg/mL (≈ 54.6 µM) | MIC [22]: > 256 µg/mL | MIC [23]: > 256 µg/mL | MIC [24]: 8 µg/mL (≈ 13.7 µM) | MIC [25]: > 256 µg/mL | MIC [26]: > 256 µg/mL | MIC [27]: 2 µg/mL (≈ 3.42 µM) | MIC [28]: > 256 µg/mL | MIC [29]: > 256 µg/mL | MIC [30]: 1 µg/mL (≈ 1.71 µM) | MIC [31]: 4 µg/mL (≈ 6.83 µM) | MIC [32]: 8 µg/mL (≈ 13.7 µM) | MIC [33]: 16 µg/mL (≈ 27.3 µM) | MIC [34]: > 256 µg/mL | MIC [35]: > 256 µg/mL | MIC [36]: > 256 µg/mL | MIC [37]: > 256 µg/mL | MIC [38]: 0.5 µg/mL (≈ 0.854 µM) | MIC [39]: > 256 µg/mL | MIC [40]: > 256 µg/mL | MIC [41]: 2 µg/mL (≈ 3.42 µM)
